According to patent US6891069B1, “Synthesis of 4-substituted phthalaldehyde” (Ethicon, Inc., priority 2004, dated 2005):
Counter-ions that a name gives are not always drawn. Like-named read-outs stand apart in the source and are kept apart here.

Experiments:
solubility in water = settings: for Concentration, Saturated: saturated aqueous germicidal solution, pH not adjusted
[1] = tested on: Mycobacterium terrae bacteria; test: bacterial suspension test; format: cell-based; settings: for Germicidal Efficacy: summary Table 14
Method: In Examples 1 to 3, which follow, several germicidal solutions containing either the 4-fluoro-, 4-chloro-, or 4-bromo-phthalaldehyde compound were tested to determine their effectiveness in killing at least 1×10^6/mL of Mycobacterium terrae bacteria using a bacterial suspension test. The bacterial suspension test that was employed is described in Section VII.
The solutions were prepared by adding the appropriate amounts of the germicidal compounds to an aqueous solution. Unless otherwise mentioned all concentrations reported herein are expressed in (w/v)%. The pH of the solution was not adjusted. The tests were conducted at a temperature of about 20° C. (room temperature). The results are presented in terms of log reductions/mL. It is understood that these examples, as well as the other examples herein, are to be construed as merely illustrative, and not limiting.
In this test method, 9 mL of the germicide to be tested is placed in a tube, put into a water bath and allowed to come to the desired temperature. One mL of the test organism, including at least 7 logs/mL of Mycobacterium terrae bacteria, is added to the 9 mL of the germicide to be tested. […] It will be appreciated by those skilled in the art that other concentrations may be utilized by proper dilution and accounting.
At appropriate time intervals, 1 mL aliquots of the germicide-cell suspension were removed and added directly into 9 mL of a 1% glycine solution (neutralizer) and mixed thoroughly to neutralize the germicide in the transferred suspension. The glycine solution was prepared from solid glycine, which is available from VWR Scientific Products, among others. The above-identified 10 mL neutralized solution was then poured through a membrane filter having an average pore size of 0.45 micrometers. The filter was then rinsed twice with at least 150 mL of the 1% glycine solution per rinse. The filter was then placed on an agar plate and incubated for twenty-one days at 37° C. In the above procedure, if dilution was needed, then the 1 mL germicidal-cell suspension was diluted in 99 mL of a phosphate buffer before addition to the 9 mL of the 1% glycine solution. The phosphate buffer was DiLu-LoK™ Butterfields Phosphate Buffer, available from Hardy Diagnostics, of Santa Maria, Calif.
The surviving colonies are then counted. The data is plotted as S/So vs. time. So is the initial count of the bacteria in the above 10 mL solution which is at least 10^6 bacteria/mL, and S is the surviving bacteria from the above filter on the agar plate. The results of the experiments were presented in terms of log reductions. Log reduction is the difference between log(So) and log(S). As one example, if log(So)=6.2, and if there were 100 survivors, then the log(S)=2, and the log reduction was reported as 4.2.

With 4-pyridinyl-propanedial the “Concentration, Saturated” value (solubility in water) was “(˜2.3%) w/v %” and the “Log Reductions/mL” value ([1]; Saturated (˜2.3% w/v), 5 min, 20° C.) was 4.0 log reductions/mL.
With O=CC(c1ccccc1)C(O)S(=O)(=O)[O-].[Na+] (stereo not shown) [1-hydroxy-3-oxo-2-phenyl-propane-1-sulfonic acid, sodium salt] the “Log Reductions/mL” value ([1]; 0.6%, 20° C., 60 min, sodium salt) was “Total Kill”, the “Log Reductions/mL” value ([1]; 2.5%, 20° C., 10 min, sodium salt) was “Total Kill” and the “Log Reductions/mL” value ([1]; 2.5%, 20° C., 30 min) was “Total Kill”. For the same compound, the “Log Reductions/mL” value ([1]; 9.4%, 20° C., 30 min) was “Total Kill”, the log reduction at 0.6 % ([1]; Mycolicibacter terrae, 0.25 h, 0.6%, 20° C., 15 min, read-out: Log Reductions/mL) was 2.4 and the log reduction at 0.6 % ([1]; Mycolicibacter terrae, 0.5 h, 0.6%, 20° C., 30 min, read-out: Log Reductions/mL) was 3.5.
Compound O=CC(c1nc2ccccc2o1)C(O)S(=O)(=O)O (stereo not shown) [2-benzooxazol-2-yl-1-hydroxy-3-oxo-propane-1-sulfonic acid, sodium salt] has a log reduction at 11.1 % ([1]; Mycolicibacter terrae, 1 h, 11.1%, 20° C., 60 min, read-out: Log Reductions/mL) of 5.
In the case of O=CC(C=O)c1cccc(C(=O)O)c1[N+](=O)[O-] [3-(1-formyl-2-oxoethyl)-2-nitro-benzoic acid], the “Concentration, Saturated” value (solubility in water) is reported as “(˜2.1%) w/v %”.
With O=Cc1ccc(Br)cc1C=O [4-bromo-phthalaldehyde] the “Log Reductions/mL” value ([1]; 0.1%, 20° C., 30 minutes) was “Total Kill” and the log reduction at 0.1 % ([1]; Mycolicibacter terrae, 10 min, 0.1%, 20° C., 10 minutes, read-out: Log Reductions/mL) was 5.6.
With O=Cc1ccc(Cl)cc1C=O [4-chloro-phthalaldehyde] the “Log Reductions/mL” value ([1]; 2.7 w/v % in 20% isopropanol, 20° C., 5 min) was “Total Kill” and the log reduction at 0.2 % ([1]; Mycolicibacter terrae, 5 min, 0.2 w/v %, 20° C., 5 min, read-out: Log Reductions/mL) was 5.9.
For O=Cc1ccc(F)cc1C=O [4-fluoro-phthalaldehyde], the “Log Reductions/mL” value ([1]; 0.25%, 20° C., 60 minutes) was “Total Kill” and the log reduction at 0.25 % ([1]; Mycolicibacter terrae, 0.5 h, 0.25%, 20° C., 30 minutes, read-out: Log Reductions/mL) was 5.6.
With O=Cc1ccccc1C(O)S(=O)(=O)[O-].[Na+] (stereo not shown) [(2-formyl-phenyl)-hydroxy-methane sulfonic acid, sodium salt] the “Log Reductions/mL” value ([1]; 9.1%, 20° C., 5 min, listed as (2-formyl-phenyl)-hydroxy-methane sulfonate, sodium salt) was “confluent”, the “Log Reductions/mL” value ([1]; 9.1%, 20° C., 5 min, listed as H-SULF, sodium salt) was “Confluent” and the log reduction at 8.9 % ([1]; Mycolicibacter terrae, 0.5 h, 20° C., 30 min, read-out: Log Reductions/mL) was 2. For the same compound, the log reduction at 8.9 % ([1]; Mycolicibacter terrae, 1 h, 20° C., 60 min, read-out: Log Reductions/mL) was 3.5 and the log reduction at 8.9 % ([1]; Mycolicibacter terrae, 2 h, 20° C., 120 min, read-out: Log Reductions/mL) was 5.7.
With O=Cc1cccc(C=O)c1 [IPA, isophthalaldehyde, reference compound] the “Log Reductions/mL” value ([1]; 0.3%, dissolved in 20% isopropanol, 20° C., 5 min (Table 11)) was “Confluent”, the “Log Reductions/mL” value ([1]; 0.3%, dissolved in 20% isopropanol, 20° C., 5 min (Table 15)) was “Confluent” and the “Germicidal Efficacy” value [1] was “Poor”.
For O=Cc1ccccc1C=O [OPA, phthalaldehyde], the solubility in water (solubility in water) was “about 5 % by weight”, the log reduction at 0.08 % ([1]; Mycolicibacter terrae, 0.5 h, 0.08%, 20° C., 30 min, read-out: Log Reductions/mL) was 3.1 and the log reduction at 0.1 % ([1]; Mycolicibacter terrae, 0.5 h, 0.10%, 20° C., 30 min, read-out: Log Reductions/mL) was 3.4. The log reduction at 0.14 % ([1]; Mycolicibacter terrae, 0.5 h, 0.14%, 20° C., 30 min, read-out: Log Reductions/mL) was 5.8 and the “Germicidal Efficacy” value [1] was “Good”.
In the case of O=Cc1ccc(C=O)cc1 [TPA, terephthaladehyde, reference compound], the “Log Reductions/mL” value ([1]; 0.2%, dissolved in 20% isopropanol, 20° C., 5 min) is reported as “Confluent” and the “Germicidal Efficacy” value [1] is reported as “Poor”.
For O=CC(C=O)c1ccccc1 [phenyl-propanedial], the solubility in water (solubility in water) was “about 1%”, the “Log Reductions/mL” value ([1]; 0.4%, 20° C., 60 min) was “Total Kill” and the “Log Reductions/mL” value ([1]; 0.7%, 20° C., 15 min) was “Total Kill”. The kill ([1]; 1% solution, 5 minutes, 20° C.) was “more than 4 logs”, the log reduction at 0.3 % ([1]; Mycolicibacter terrae, 1 h, 0.3%, 20° C., 60 min, read-out: Log Reductions/mL) was 3.7 and the log reduction at 0.33 % ([1]; Mycolicibacter terrae, 1 h, 0.33%, 20° C., 60 min, read-out: Log Reductions/mL) was 3.7.
